Test results as given in patent EP2147919A1, “Heterocyclic substituted amides, method for their manufacture and their use as herbicides” (Bayer CropScience Aktiengesellschaft, priority 2008, dated 2010).

Legend:
Schadpflanzen [1] = test: Herbicidal action post-emergence, summary over the weed spectrum; format: in vivo; details: Nachauflaufverfahren, Aufwandmenge von 1.28 kg und weniger Aktivsubstanz pro Hektar
From the text: Samen von mono- bzw. dikotylen Unkraut- bzw. Kulturpflanzen werden in Holzfasertöpfen in sandigem Lehmboden ausgelegt, mit Erde abgedeckt und im Gewächshaus unter guten Wachstumsbedingungen angezogen. 2 bis 3 Wochen nach der Aussaat werden die Versuchspflanzen im Einblattstadium behandelt. Die in Form von benetzbaren Pulvern (WP) oder als Emulsionskonzentrate (EC) formulierten erfindungsgemäßen Verbindungen werden dann als wäßrige Suspension bzw. Emulsion mit einer Wasseraufwandmenge von umgerechnet 600 bis 800 l/ha unter Zusatz von 0,2% Netzmittel auf die grünen Pflanzenteile gesprüht. Nach ca. 3 Wochen Standzeit der Versuchspflanzen im Gewächshaus unter optimalen Wachstumsbedingungen wird die Wirkung der Präparate visuell im Vergleich zu unbehandelten Kontrollen bonitiert (herbizide Wirkung in Prozent (%): 100% Wirkung = Pflanzen sind abgestorben, 0 % Wirkung = wie Kontrollpflanzen).

ECHCG = test: Herbicidal action pre-emergence (greenhouse pot test, visual rating); format: in vivo, Echinochloa crus-galli; details: Vorauflauf, 1280 g/ha, visual rating after 3 weeks vs untreated controls
From the text: (§1) Samen von mono- bzw. dikotylen Unkraut- bzw. Kulturpflanzen werden in Holzfasertöpfen in sandiger Lehmerde ausgelegt und mit Erde abgedeckt. Die in Form von benetzbaren Pulvern (WP) oder als Emulsionskonzentrate (EC) formulierten erfindungsgemäßen Verbindungen werden dann als wäßrige Suspension bzw. Emulsion mit einer Wasseraufwandmenge von umgerechnet 600 bis 800 l/ha unter Zusatz von 0,2% Netzmittel auf die Oberfläche der Abdeckerde appliziert.
(§2) Nach der Behandlung werden die Töpfe im Gewächshaus aufgestellt und unter guten Wachstumsbedingungen für die Testpflanzen gehalten. Die visuelle Bonitur der Schäden an den Versuchspflanzen erfolgt nach einer Versuchszeit von 3 Wochen im Vergleich zu unbehandelten Kontrollen (herbizide Wirkung in Prozent (%): 100% Wirkung = Pflanzen sind abgestorben, 0 % Wirkung = wie Kontrollpflanzen).

VERPE = test: as above; format: in vivo, Veronica persica; details: Vorauflauf, 1280 g/ha, visual rating after 3 weeks vs untreated controls
From the text: as §1, §2

AMARE = test: as above; format: in vivo, Amaranthus retroflexus; details: Vorauflauf, 1280 g/ha, visual rating after 3 weeks vs untreated controls
From the text: as §1, §2

LOLMU = test: as above; format: in vivo, Lolium multiflorum; details: Vorauflauf, 1280 g/ha, visual rating after 3 weeks vs untreated controls
From the text: as §1, §2

STEME = test: as above; format: in vivo, Stellaria media; details: Vorauflauf, 1280 g/ha, visual rating after 3 weeks vs untreated controls
From the text: as §1, §2

VIOTR = test: as above; format: in vivo, Viola tricolor; details: Vorauflauf, 1280 g/ha, visual rating after 3 weeks vs untreated controls
From the text: as §1, §2

ABUTH = test: as above; format: in vivo, Abutilon theophrasti; details: Vorauflauf, 1280 g/ha, visual rating after 3 weeks vs untreated controls
From the text: as §1, §2

ALOMY = test: as above; format: in vivo, Alopecurus myosuroides; details: Vorauflauf, 1280 g/ha, visual rating after 3 weeks vs untreated controls
From the text: as §1, §2

MATIN = test: as above; format: in vivo, Matricaria inodora; details: Vorauflauf, 1280 g/ha, visual rating after 3 weeks vs untreated controls
From the text: as §1, §2

Schadpflanzen [2] = test: Herbicidal action pre-emergence, summary over the weed spectrum; format: in vivo; details: Vorauflaufverfahren, Aufwandmenge von 1.28 kg und weniger Aktivsubstanz pro Hektar
From the text: as §1, §2

POLCO = test: Herbicidal action pre-emergence (greenhouse pot test, visual rating); format: in vivo, Polygonum convolvolus; details: Vorauflauf, 1280 g/ha, visual rating after 3 weeks vs untreated controls
From the text: as §1, §2

SETVI = test: as above; format: in vivo, Setaria viridis; details: Vorauflauf, 1280 g/ha, visual rating after 3 weeks vs untreated controls
From the text: as §1, §2

AVEFA = test: as above; format: in vivo, Avena fatua; details: Vorauflauf, 1280 g/ha, visual rating after 3 weeks vs untreated controls
From the text: as §1, §2

For `CCCOc1cc(C)nc(Cl)c1C(=O)NC(c1ccon1)c1ccc(OC)cc1F` (stereo not drawn) [Beispiel 2, 2-Chlor-N-[(2-fluor-4-methoxyphenyl)(isoxazol-3-yl)methyl]-6-methyl-4-n-propoxynicotinamid], the “herbizide Wirkung gegen Schadpflanzen” value (Schadpflanzen [1]) was “sehr gute herbizide Wirkung”.

In the case of `CCCOc1cc(C)nc(Br)c1C(=O)NC(c1cccc(Cl)c1)c1ccon1` (stereo not drawn) [Beispiel 162], the “herbizide Wirkung ECHCG” value (ECHCG) is reported as 80%, the “herbizide Wirkung VERPE” value (VERPE) is reported as 100% and the “herbizide Wirkung AMARE” value (AMARE) is reported as 100%. For the same molecule, the “herbizide Wirkung LOLMU” value (LOLMU) was 80%, the “herbizide Wirkung STEME” value (STEME) was 100% and the “herbizide Wirkung VIOTR” value (VIOTR) was 100%. The “herbizide Wirkung gegen Schadpflanzen” value (Schadpflanzen [1]) was “sehr gute herbizide Wirkung”, the “herbizide Wirkung ABUTH” value (ABUTH) was 100% and the “herbizide Wirkung ALOMY” value (ALOMY) was 90%. For the same molecule, the “herbizide Wirkung MATIN” value (MATIN) was 100%, the “herbizide Wirkung gegen Schadpflanzen” value (Schadpflanzen [2]) was “sehr gute herbizide Wirkung” and the “herbizide Wirkung POLCO” value (POLCO) was 100%. The “herbizide Wirkung SETVI” value (SETVI) was 80%.

For `CCCOc1cc(C)nc(Br)c1C(=O)NC(c1ccc(F)c(F)c1)c1ccon1` (stereo not drawn) [Beispiel 161], the “herbizide Wirkung ECHCG” value (ECHCG) was 80%, the “herbizide Wirkung VERPE” value (VERPE) was 100% and the “herbizide Wirkung AMARE” value (AMARE) was 100%. The “herbizide Wirkung LOLMU” value (LOLMU) was 90%, the “herbizide Wirkung STEME” value (STEME) was 100% and the “herbizide Wirkung AVEFA” value (AVEFA) was 80%. The “herbizide Wirkung VIOTR” value (VIOTR) was 100%, the “herbizide Wirkung ABUTH” value (ABUTH) was 100% and the “herbizide Wirkung ALOMY” value (ALOMY) was 90%. The “herbizide Wirkung MATIN” value (MATIN) was 100%, the “herbizide Wirkung gegen Schadpflanzen” value (Schadpflanzen [2]) was “sehr gute herbizide Wirkung” and the “herbizide Wirkung POLCO” value (POLCO) was 100%. For the same molecule, the “herbizide Wirkung SETVI” value (SETVI) was 100%.
